Test results as given in ChEMBL document CHEMBL6074685, “Design, synthesis and biological evaluation of novel diaryl-substituted fused nitrogen heterocycles as tubulin polymerization inhibitors to overcome multidrug resistance in vitro and in vivo” (Eur J Med Chem, 2025).
Active and inactive are the calls of the source. The rule behind the calls is not given here.

How the values were obtained:
[1] = Toxicity in BALB/c mouse implanted with human A549/T cell assessed as monocyte count at 30 mg/kg, ip administered every 2 days and measured after 2 weeks (reference value: 30.6 %); format: organism-based; details: in vivo, 336 h
[2] = Toxicity in BALB/c mouse implanted with human A549/T cell assessed as change in body weight at 15 mg/kg, ip administered every 2 days; format: organism-based; details: in vivo, 48 h, time 2 day
[3] = system: A549/TR; experiment: Downregulation of P-gp level in human A549/T cell measured after 48 hrs by immunoblotting analysis; format: functional, cell-based; details: dose 62.5-500 nM
[4] = system: A549/TR; experiment: Induction of apoptosis in human A549/T cell at 125 nM incubated for 48 hrs by V-FITC/PI staining based flow cytometry analysis relative to control; format: functional
[5] = system: A549; experiment: Inhibition of colony formation in human A549 cells incubated for 48 hrs by crystal violet staining based analysis; format: functional, cell-based; details: dose 0.1-0.5 µM
[6] = Toxicity in BALB/c mouse implanted with human A549/T cell assessed as WBC count at 15 mg/kg, ip administered every 2 days and measured after 2 weeks (reference value: 1.3 10^9/L); format: organism-based; details: in vivo, 336 h
[7] = Toxicity in BALB/c mouse implanted with human A549/T cell assessed as WBC count at 30 mg/kg, ip administered every 2 days and measured after 2 weeks (reference value: 1.3 10^9/L); format: organism-based; details: in vivo, 336 h
[8] = Toxicity in BALB/c mouse implanted with human A549/T cell assessed as liver damage at 15 to 30 mg/kg, ip administered every 2 days by H and E staining based analysis; format: organism-based; details: in vivo, 48 h, dose 15-30 mg/kg, time 2 day
[9] = Metabolic stability in human liver microsome assessed as half life measured upto 50 mins by LC-MS/MS analysis; format: ADME; details: liver microsomes
[10] = molecular target: Tubulin (Homo sapiens) (UniProt P68371+Q9H4B7+P0DPH7+P68366+Q13509+Q71U36+P04350+Q3ZCM7+P07437+P68363+Q9BQE3+Q6PEY2+Q13885+Q9BVA1+Q9BUF5); experiment: Disruption of microtubule network in human A549/T cell assessed as change in microtubule morphology at 100 to 200 nM incubated for 24 hrs by immunofluorescence staining based confocal microscopy analysis; details: dose 100-200 nM
[11] = Toxicity in BALB/c mouse implanted with human A549/T cell assessed as MCH level at 30 mg/kg, ip administered every 2 days and measured after 2 weeks (reference value: 29.2 pg); format: organism-based; details: in vivo, 336 h
[12] = Toxicity in BALB/c mouse implanted with human A549/T cell assessed as change in body weight at 30 mg/kg, ip administered every 2 days; format: organism-based; details: in vivo, 48 h, time 2 day
[13] = system: A549/TR; experiment: Antiproliferative activity against human A549/T cell assessed as cell growth inhibition incubated for 48 hrs by MTT assay; format: functional, cell-based
[14] = system: A549/TR; experiment: Inhibition of colony formation in human A549/T cell incubated for 48 hrs by crystal violet staining based analysis; format: functional; details: dose 0.1-0.5 µM
[15] = system: A549; experiment: Antiproliferative activity against human A549 cells assessed as cell growth inhibition incubated for 48 hrs by MTT assay; details: A549, 48 h
[16] = Metabolic stability in human liver microsome assessed as intrinsic clearance measured upto 50 mins by LC-MS/MS analysis; format: ADME; details: liver microsomes, read-out: CLH
[17] = Toxicity in BALB/c mouse implanted with human A549/T cell assessed as red blood cell distribution width-cell volume at 15 mg/kg, ip administered every 2 days and measured after 2 weeks (reference value: 25fL); format: organism-based; details: in vivo, 336 h
[18] = Toxicity in BALB/c mouse implanted with human A549/T cell assessed as platelet distribution width at 15 mg/kg, ip administered every 2 days and measured after 2 weeks (reference value: 15.3 fL); format: organism-based; details: in vivo, 336 h
[19] = Toxicity in BALB/c mouse implanted with human A549/T cell assessed as MCH level at 15 mg/kg, ip administered every 2 days and measured after 2 weeks (reference value: 29.2 pg); format: organism-based; details: in vivo, 336 h
[20] = Toxicity in BALB/c mouse implanted with human A549/T cell assessed as red blood cell distribution width-cell size at 30 mg/kg, ip administered every 2 days and measured after 2 weeks (reference value: 12.1 fL); format: organism-based; details: in vivo, 336 h
[21] = system: A549; experiment: Induction of apoptosis in human A549 cells at 50 nM incubated for 48 hrs by V-FITC/PI staining based flow cytometry analysis relative to control; format: functional
[22] = system: A549; experiment: Effect on p-gp expression in human A549 cells by immunoblotting analysis; format: functional, cell-based
[23] = Toxicity in BALB/c mouse implanted with human A549/T cell assessed as RBC count at 30 mg/kg, ip administered every 2 days and measured after 2 weeks (reference value: 7.92 10^12/L); format: organism-based; details: in vivo, 336 h
[24] = system: A549; experiment: Induction of apoptosis in human A549 cells at 25 nM incubated for 48 hrs by V-FITC/PI staining based flow cytometry analysis relative to control; format: functional
[25] = Metabolic stability in human liver microsome assessed as parent compound remaining measured upto 50 mins by LC-MS/MS analysis; format: ADME; details: microsomes
[26] = Cytotoxicity against human MCF-10A cells assessed as inhibition of cell growth at 100 nM incubated for 48 hrs by MTT assay relative to control; format: toxicity, cell-based
[27] = system: A549/TR; experiment: Effect on P-gp protein level in human A549/T cell at 62.5 to 500 nM measured at 12 hrs by immunoblotting analysis; format: functional, cell-based; details: dose 62.5-500 nM
[28] = Toxicity in BALB/c mouse implanted with human A549/T cell assessed as monocyte count at 15 mg/kg, ip administered every 2 days and measured after 2 weeks (reference value: 30.6 %); format: organism-based; details: in vivo, 336 h
[29] = Toxicity in BALB/c mouse implanted with human A549/T cell assessed as lymphocyte count at 30 mg/kg, ip administered every 2 days and measured after 2 weeks (reference value: […]); format: organism-based; details: in vivo, 336 h
[30] = Toxicity in BALB/c mouse implanted with human A549/T cell assessed as mean platelet volume at 30 mg/kg, ip administered every 2 days and measured after 2 weeks (reference value: 10.1 fL); format: organism-based; details: in vivo, 336 h
[31] = Toxicity in BALB/c mouse implanted with human A549/T cell assessed as RBC count at 15 mg/kg, ip administered every 2 days and measured after 2 weeks (reference value: 7.92 10^12/L); format: organism-based; details: in vivo, 336 h

## COc1ccc(-c2cc(-c3ccc(OC)c(OC)c3OC)c3nc[nH]c3c2)cc1N
[1]
  Activity: 23.4%
[2]
  Activity: Non-toxic
[3]
  Activity: Dose-dependent-effect
[4]
  Activity: 54.01%
[5]
  inhibition: Dose-dependent-effect
[6]
  Activity: 2.8 10^9/L
[7]
  Activity: 2.4 10^9/L
[8]
  Activity: Non-toxic
[9]
  half-life: 1.25 h
[10]
  Activity: Active
[11]
  Activity: 31.6 pg
[12]
  Activity: Non-toxic
[13]
  IC50: 57 nM
[14]
  inhibition: Dose-dependent-effect
[15]
  IC50: 23 nM
[16]
  CLint scaled: 23 mL/min/kg
[17]
  Activity: 24 fL
[18]
  Activity: 17.9 fL
[19]
  Activity: 28.9 pg
[20]
  Activity: 12.3 fL
[21]
  Activity: 34.2%
[22]
  Activity: inactive
[23]
  Activity: 5.94 10^12/L
[24]
  Activity: 15.47%
[25]
  Stability: Stable
[26]
  inhibition at 48 h, 0.1 µM: 47%
[27]
  Activity: inactive
[28]
  Activity: 29.5%
[29]
  Activity: 1.32 10^9/L
[30]
  Activity: 10.2 fL
[31]
  Activity: 7.43 10^12/L
